Results as given in PubChem BioAssay AID256 (DTP/NCI, 2004).
Where “and” joins values, the source holds several entries; their conditions need not be identical. Equal entries are not always repeated. Toxic doses and inconclusive results are not listed.

System: CD2F1 mice, L1210 leukemia ip, survival T/C
Experiment: NCI In Vivo Anticancer Drug Screen. Data for tumor model L1210 Leukemia (intraperitoneal) in CD2F1 (CDF1) mice
Settings: higher = longer survival
Outline: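 Compound-dosed mice with transplantable tumor versus matched vehicle controls; endpoint ratio T/C reported.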

[1] = endpoint: mean survival time, dose: 100.0 mg/kg/injection, schedule: Q01DX009 (ip), vehicle: saline with Tween-80
[2] = endpoint: mean survival time, dose: 100.0 mg/kg/injection, schedule: Q04DX003 (ip), vehicle: saline with Tween-80
[3] = endpoint: mean survival time, dose: 200.0 mg/kg/injection, schedule: Q01DX009 (ip), vehicle: saline with Tween-80
[4] = endpoint: mean survival time, dose: 200.0 mg/kg/injection, schedule: Q04DX003 (ip), vehicle: saline with Tween-80
[5] = endpoint: mean survival time, dose: 400.0 mg/kg/injection, schedule: Q04DX003 (ip), vehicle: saline with Tween-80
[6] = endpoint: mean survival time, dose: 100.0 mg/kg/injection, schedule: Q01DX001 (ip), vehicle: saline
[7] = endpoint: mean survival time, dose: 100.0 mg/kg/injection, schedule: Q01DX001 (ip), vehicle: saline with Tween-80
[8] = endpoint: mean survival time, dose: 200.0 mg/kg/injection, schedule: Q01DX001 (ip), vehicle: saline with Tween-80
[9] = endpoint: mean survival time, dose: 400.0 mg/kg/injection, schedule: Q01DX001 (ip), vehicle: saline with Tween-80
[10] = endpoint: mean survival time, dose: 100.0 mg/kg/injection, schedule: Q04DX002 (ip), vehicle: saline with Tween-80
[11] = endpoint: mean survival time, dose: 200.0 mg/kg/injection, schedule: Q04DX002 (ip), vehicle: saline with Tween-80
[12] = endpoint: mean survival time, dose: 400.0 mg/kg/injection, schedule: Q04DX002 (ip), vehicle: saline with Tween-80
[13] = endpoint: mean survival time, dose: 100.0 mg/kg/injection, schedule: Q04DX003 (ip), vehicle: saline
[14] = endpoint: mean survival time, dose: 200.0 mg/kg/injection, schedule: Q01DX001 (ip), vehicle: saline

CC(=O)C(c1ccccc1)C(c1ccccc1)P(=O)(c1ccccc1)c1ccccc1 (stereo not drawn)
T/C [1]: 87 % of control | T/C [2]: 97 % of control | T/C [3]: 90 % of control | T/C [4]: 94 % of control | T/C (endpoint: mean survival time, dose: 400.0 mg/kg/injection, schedule: Q01DX009 (ip), vehicle: saline with Tween-80): 96 % of control | T/C [5]: 87 % of control

COc1cc2c(C(=O)O)cc(-c3ccc(Cl)cc3)nc2cc1Cl
T/C [6]: 98 % of control

COc1ccc(OC)c(CC(CC(=O)O)C(C)=O)c1 (stereo not drawn)
T/C (endpoint: mean survival time, dose: 12.5 mg/kg/injection, schedule: Q01DX009 (ip), vehicle: water): 96 % of control | T/C (endpoint: mean survival time, dose: 25.0 mg/kg/injection, schedule: Q01DX009 (ip), vehicle: water): 100 % of control | T/C (endpoint: mean survival time, dose: 50.0 mg/kg/injection, schedule: Q01DX009 (ip), vehicle: water): 96 % of control | T/C (endpoint: mean survival time, dose: 100.0 mg/kg/injection, schedule: Q01DX009 (ip), vehicle: water): 96 % of control | T/C (endpoint: mean survival time, dose: 200.0 mg/kg/injection, schedule: Q01DX009 (ip), vehicle: water): 100 % of control

C/C(=N/Nc1ccc([N+](=O)[O-])cc1[N+](=O)[O-])C1CC2CCC1C2 (stereo not drawn)
T/C [7]: 100 % of control | T/C [8]: 96 % of control | T/C [9]: 96 % of control

CCCCOC(=O)/C=C(\CC(=O)OCCCC)C(=O)OCCCC
T/C [7]: 97 % of control | T/C [8]: 97 % of control | T/C [9]: 103 % of control

CC(=NCC(C)N=C(C)c1ccccc1O)c1ccccc1O.[Ni] (stereo not drawn)
T/C (endpoint: mean survival time, dose: 50.0 mg/kg/injection, schedule: Q04DX002 (ip), vehicle: saline with Tween-80): 109 % of control | T/C [10]: 97 % of control | T/C [11]: 97 % of control | T/C [12]: 97 % of control

COc1ccccc1/C(C)=N\NC(=O)c1ccccc1
T/C [1]: 94 % of control | T/C [2]: 94 % of control | T/C [3]: 96 % of control | T/C [4]: 98 % of control | T/C [5]: 104 % of control

CCOc1ccnc(OCC)n1
T/C [2]: 105 % of control | T/C [4]: 102 % of control

O=C1NC(=O)C2(CCc3ccccc32)N1 (stereo not drawn)
T/C [2]: 110 % of control | T/C [4]: 98 % of control | T/C [5]: 96 % of control

S=C(Nc1ccccc1)N1CCC(CCCC2CCN(C(=S)Nc3ccccc3)CC2)CC1
T/C [2]: 91 % of control | T/C [4]: 88 % of control

Cc1c(C)c(C(=O)O)c(C)c(C)c1C(=O)O
T/C [13]: 102 % of control | T/C (endpoint: mean survival time, dose: 200.0 mg/kg/injection, schedule: Q04DX003 (ip), vehicle: saline): 100 % of control | T/C (endpoint: mean survival time, dose: 400.0 mg/kg/injection, schedule: Q04DX003 (ip), vehicle: saline): 96 % of control

CC(=O)/C(=C\c1ccccc1)CNC(C)(C)C
T/C (endpoint: mean survival time, dose: 25.0 mg/kg/injection, schedule: Q01DX001 (ip), vehicle: saline with Tween-80): 92 % of control | T/C (endpoint: mean survival time, dose: 50.0 mg/kg/injection, schedule: Q01DX001 (ip), vehicle: saline with Tween-80): 100 % of control | T/C [7]: 100 % of control

CC(=O)OCC1OC(OC2=C(CC=C(C)C)C(=O)c3ccccc3C2=O)C(OC(C)=O)C(OC(C)=O)C1OC(C)=O (stereo not drawn)
T/C (endpoint: mean survival time, dose: 6.25 mg/kg/injection, schedule: Q01DX009 (ip), vehicle: Klucel (hydroxypropylcellulose) (HPC)): 108 % of control | T/C (endpoint: mean survival time, dose: 12.5 mg/kg/injection, schedule: Q01DX009 (ip), vehicle: Klucel (hydroxypropylcellulose) (HPC)): 101 % of control and 108 % of control | T/C (endpoint: mean survival time, dose: 25.0 mg/kg/injection, schedule: Q01DX009 (ip), vehicle: Klucel (hydroxypropylcellulose) (HPC)): 101 % of control and 108 % of control | T/C (endpoint: mean survival time, dose: 50.0 mg/kg/injection, schedule: Q01DX009 (ip), vehicle: Klucel (hydroxypropylcellulose) (HPC)): 101 % of control | T/C (endpoint: mean survival time, dose: 100.0 mg/kg/injection, schedule: Q01DX009 (ip), vehicle: Klucel (hydroxypropylcellulose) (HPC)): 92 % of control and 102 % of control | T/C (endpoint: mean survival time, dose: 200.0 mg/kg/injection, schedule: Q01DX009 (ip), vehicle: Klucel (hydroxypropylcellulose) (HPC)): 89 % of control and 96 % of control

O=C(O)CC(=O)O.[NH-]CCC1CCCC[N-]1.[Pt+2] (stereo not drawn)
T/C (endpoint: mean survival time, dose: 3.13 mg/kg/injection, schedule: Q04DX003 (ip), vehicle: distilled water + Tween-80): 111 % of control | T/C (endpoint: mean survival time, dose: 6.25 mg/kg/injection, schedule: Q04DX003 (ip), vehicle: distilled water + Tween-80): 108 % of control | T/C (endpoint: mean survival time, dose: 12.5 mg/kg/injection, schedule: Q04DX003 (ip), vehicle: distilled water + Tween-80): 114 % of control | T/C (endpoint: mean survival time, dose: 25.0 mg/kg/injection, schedule: Q04DX003 (ip), vehicle: distilled water + Tween-80): 114 % of control | T/C (endpoint: mean survival time, dose: 25.0 mg/kg/injection, schedule: Q04DX003 (ip), vehicle: water): 108 % of control | T/C (endpoint: mean survival time, dose: 50.0 mg/kg/injection, schedule: Q04DX003 (ip), vehicle: distilled water + Tween-80): 113 % of control | T/C (endpoint: mean survival time, dose: 50.0 mg/kg/injection, schedule: Q04DX003 (ip), vehicle: water): 120 % of control

CN(C)CCC(=O)/C=C\c1ccccc1
T/C [13]: 89 % of control

CCOc1ccc(N=Cc2ccccc2O)cc1
T/C [7]: 94 % of control | T/C [8]: 94 % of control | T/C [9]: 87 % of control

COc1cc(C(=O)C=[N+]=[N-])cc(OC)c1OC(C)=O
T/C [6]: 91 % of control | T/C [14]: 96 % of control | T/C (endpoint: mean survival time, dose: 400.0 mg/kg/injection, schedule: Q01DX001 (ip), vehicle: saline): 110 % of control

O=C(COc1ccc(Br)cc1)Nc1cc(Cl)ccc1Cl
T/C [10]: 87 % of control | T/C [11]: 95 % of control | T/C [12]: 91 % of control

O=[As](O)(CC(O)COc1ccc(Cl)cc1Cl)c1cccc(Cl)c1 (stereo not drawn)
T/C (endpoint: mean survival time, dose: 6.25 mg/kg/injection, schedule: Q04DX003 (ip), vehicle: saline with Tween-80): 98 % of control | T/C (endpoint: mean survival time, dose: 12.5 mg/kg/injection, schedule: Q04DX003 (ip), vehicle: saline with Tween-80): 110 % of control

O=C(O)CCOc1cc(F)c(F)cc1F
T/C [10]: 101 % of control | T/C [11]: 90 % of control | T/C [12]: 97 % of control

O=P(O)(NCCCl)NCCCl
T/C [6]: 404 % of control | T/C [14]: 488 % of control | T/C (endpoint: median survival time, dose: 25.0 mg/kg/injection, schedule: Q01DX001 (ip), vehicle: saline with Tween-80): 116 % of control | T/C (endpoint: median survival time, dose: 50.0 mg/kg/injection, schedule: Q01DX001 (ip), vehicle: saline with Tween-80): 160 % of control | T/C (endpoint: median survival time, dose: 75.0 mg/kg/injection, schedule: Q01DX001 (ip), vehicle: saline): 356 % of control | T/C (endpoint: median survival time, dose: 100.0 mg/kg/injection, schedule: Q01DX001 (ip), vehicle: saline with Tween-80): 160 % of control and 185 % of control | T/C (endpoint: median survival time, dose: 100.0 mg/kg/injection, schedule: Q01DX001 (ip), vehicle: saline): 232 % of control and 410 % of control | T/C (endpoint: median survival time, dose: 100.0 mg/kg/injection, schedule: Q01DX001 (iv), vehicle: saline): 219 % of control | T/C (endpoint: median survival time, dose: 125.0 mg/kg/injection, schedule: Q01DX001 (ip), vehicle: saline): 202 % of control | T/C (endpoint: median survival time, dose: 150.0 mg/kg/injection, schedule: Q01DX001 (ip), vehicle: saline): 205 % of control | T/C (endpoint: median survival time, dose: 150.0 mg/kg/injection, schedule: Q01DX001 (iv), vehicle: saline): 86 % of control | T/C (endpoint: median survival time, dose: 200.0 mg/kg/injection, schedule: Q01DX001 (ip), vehicle: saline with Tween-80): 191 % of control

CC(C)OC(=O)Nc1ccncc1
T/C (endpoint: mean survival time, dose: 25.0 mg/kg/injection, schedule: Q04DX002 (ip), vehicle: saline with Tween-80): 104 % of control

Nc1nc(SSc2nc(N)nc3c2ncn3C2CC(O)C(CO)O2)c2ncn(C3CC(O)C(CO)O3)c2n1 (stereo not drawn)
T/C (endpoint: mean survival time, dose: 2.3 mg/kg/injection, schedule: Q01DX009 (ip), vehicle: saline): 152 % of control | T/C (endpoint: mean survival time, dose: 4.7 mg/kg/injection, schedule: Q01DX009 (ip), vehicle: saline): 162 % of control | T/C (endpoint: mean survival time, dose: 18.8 mg/kg/injection, schedule: Q01DX009 (ip), vehicle: saline): 119 % of control

CCOc1ccc(-n2c(=O)c(N=Nc3ccccc3)c(O)n(-c3ccccc3OC)c2=S)cc1
T/C [7]: 102 % of control | T/C [8]: 89 % of control | T/C [9]: 90 % of control

COc1cc(C2CNCc3cc(O)c(OC)cc32)ccc1O (stereo not drawn)
T/C (endpoint: mean survival time, dose: 75.0 mg/kg/injection, schedule: Q01DX001 (ip), vehicle: saline): 106 % of control | T/C (endpoint: mean survival time, dose: 150.0 mg/kg/injection, schedule: Q01DX001 (ip), vehicle: saline): 102 % of control

CSCC(N)C(=O)O (stereo not drawn)
T/C (endpoint: mean survival time, dose: 100.0 mg/kg/injection, schedule: Q01DX009 (ip), vehicle: saline): 103 % of control | T/C (endpoint: mean survival time, dose: 200.0 mg/kg/injection, schedule: Q01DX009 (ip), vehicle: saline): 103 % of control | T/C (endpoint: mean survival time, dose: 400.0 mg/kg/injection, schedule: Q01DX009 (ip), vehicle: saline): 97 % of control

O=C1NC(=O)C(=C/C=C/c2ccccc2)C(=O)N1
T/C (endpoint: mean survival time, dose: 12.5 mg/kg/injection, schedule: Q01DX009 (ip), vehicle: saline with Tween-80): 97 % of control | T/C (endpoint: mean survival time, dose: 25.0 mg/kg/injection, schedule: Q01DX009 (ip), vehicle: saline with Tween-80): 94 % of control | T/C (endpoint: mean survival time, dose: 50.0 mg/kg/injection, schedule: Q01DX009 (ip), vehicle: saline with Tween-80): 91 % of control and 103 % of control

COc1c(C)c2c(c(O)c1C/C=N\O)C(=O)OC2
T/C [10]: 100 % of control | T/C [11]: 100 % of control | T/C [12]: 100 % of control
